Measurements from US20190117651A1, “COMPOSITION FOR STIMULATING SIRTUIN ACTIVITY” (Bitop AG, priority 2016, published 2019).

System: sirtuin activity in the lung tissue
Experiment: repeated application of a solution containing ectoine into the lungs of rats; sirtuin activity in the lung tissue
Assay type: in vivo
Source text: The composition proposed by the invention can generally be adopted for the treatment and/or prophylaxis of aging symptoms and for influencing self-renewal processes, cell differentiation and cell proliferation. The composition is of particular importance in the treatment of aging symptoms of the lung, especially of the senile emphysema. This is characterized by the degeneration of the alveolar structures in the lungs, which leads to a reduction of the lung surface which is available for the exchange of gas. In such cases, the patient finds it hard to breathe properly. […] The aging of tissue is attributable to an altered gene activity during the self-renewal and cell differentiation processes in (lung) tissue, which is regulated by the accessibility of DNA by histones and is thus also dependent on sirtuins.

CC1=NCC[C@@H](C(=O)O)N1 (stereo in doubt) [ectoine, 2-methyl-1,4,5,6-tetrahydropyrimidine-4-carboxylic acid]
loss of sirtuin activity in the lung tissue: significant reduction of the loss of sirtuin activity
